From the supplement of paper PMC11061612

Columns and labels:
Experiment in all cases: combination Emax (second highest fraction inhibited in the dose matrix, 72 h); higher = more inhibition; extreme values may be limits of the assay
NCI-H2373 (Mesothelioma) = tested on: NCI-H2373 (Mesothelioma)
Procedure, shortened: (§1)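 After 24 hours at 37°C and 5% CO2 in 1536-well plates, cells in DMEM/F12 or RPMI plus 10% FBS received two-drug dose matrices for 72 hours. Viability came from CellTiter-Glo 2.0 luminescence and was scaled as inhibition, anchored at 0 by vehicle wells and at 1 by blank wells. Combination Emax is taken as the second-highest inhibition in the matrix, and Bliss excess as the observed combination effect less EA + EB − EA·EB, with EA and EB the single-agent effects.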

[1] = tested on: DBTRG-05MG (Glioblastoma)
Procedure, shortened: as §1

[2] = tested on: HT-1080 (Other Solid Carcinomas)
Procedure, shortened: as §1

[3] = tested on: BxPC-3 (Pancreatic Carcinoma)
Procedure, shortened: as §1

[4] = tested on: NCI-H1341 (Small Cell Lung Carcinoma)
Procedure, shortened: as §1

[5] = tested on: SAT (Head and Neck Carcinoma)
Procedure, shortened: as §1

[6] = tested on: ZR-75-30 (Breast Carcinoma)
Procedure, shortened: as §1

[7] = tested on: T84 (Colorectal Carcinoma)
Procedure, shortened: as §1

[8] = tested on: NAMALWA (Burkitt's Lymphoma)
Procedure, shortened: as §1

WM35 (Melanoma) = tested on: WM35 (Melanoma)
Procedure, shortened: as §1

[9] = tested on: SNU-423 (Hepatocellular Carcinoma)
Procedure, shortened: as §1

[10] = tested on: SKG-IIIa (Cervical Carcinoma)
Procedure, shortened: as §1

NB1 (Neuroblastoma) = tested on: NB1 (Neuroblastoma)
Procedure, shortened: as §1

[11] = tested on: C-33-A (Cervical Carcinoma)
Procedure, shortened: as §1

SMILES | combination Emax (NCI-H2373 (Mesothelioma)) | combination Emax [1] | combination Emax [2] | combination Emax [3] | combination Emax [4] | combination Emax [5] | combination Emax [6] | combination Emax [7] | combination Emax [8] | combination Emax (WM35 (Melanoma)) | combination Emax [9] | combination Emax [10] | combination Emax (NB1 (Neuroblastoma)) | combination Emax [11]
CN(C)CCCOc1ccc(-c2ccc3ncc4c(c3c2)n(C2CCOCC2)c(=O)n4C)cn1 [AZD0156] + C=CCn1c(=O)c2cnc(Nc3ccc(N4CCN(C)CC4)cc3)nc2n1-c1cccc(C(C)(C)O)n1 [AZD1775] (first compound max 1 µM, partner max 1 µM) | 0.408 | 0.175 | 0.331 | 0.457 | 0.675 | 0.427 | 0.156 | 0.556 | 0.974 | 0.348 | 0.506 | 0.203 | 0.936 | 0.894
CN(C)CCCOc1ccc(-c2ccc3ncc4c(c3c2)n(C2CCOCC2)c(=O)n4C)cn1 [AZD0156] + CCN(CCO)CCCOc1ccc2c(Nc3cc(CC(=O)Nc4cccc(F)c4)[nH]n3)ncnc2c1 [AZD2811] (first compound max 1 µM, 7x7, partner max 1 µM) | 0.354 | 0.154 | 0.142 | 0.101 | 0.409 | 0.142 | 0.135 | 0.023 | 0.402 | 0.119 | 0.194 | 0.0993 | 0.641 | 0.0887
CN(C)CCCOc1ccc(-c2ccc3ncc4c(c3c2)n(C2CCOCC2)c(=O)n4C)cn1 [AZD0156] + C[C@@H]1COCCN1C2=NC(=NC(=C2)C3(CC3)[S@](=N)(=O)C)C4=C5C=CNC5=NC=C4 [AZD6738] (first compound max 1 µM, 7x7, partner max 10 µM) | 0.588 | 0.251 | 0.507 | 0.475 | 0.849 | 0.361 | 0.189 | 0.668 | 0.96 | 0.771 | 0.495 | 0.233 | 0.933 | 0.886
C=CCn1c(=O)c2cnc(Nc3ccc(N4CCN(C)CC4)cc3)nc2n1-c1cccc(C(C)(C)O)n1 [AZD1775] + C[C@@H]1COCCN1C2=NC(=NC(=C2)C3(CC3)[S@](=N)(=O)C)C4=C5C=CNC5=NC=C4 [AZD6738] (first compound max 1 µM, partner max 10 µM) | 0.608 | 0.332 | 0.476 | 0.624 | 0.941 | 0.469 | 0.296 | 0.817 | 0.961 | 0.659 | 0.747 | 0.586 | 0.944 | 0.978
C=CCn1c(=O)c2cnc(Nc3ccc(N4CCN(C)CC4)cc3)nc2n1-c1cccc(C(C)(C)O)n1 [AZD1775] + O=C(c1cc(Cc2n[nH]c(=O)c3ccccc23)ccc1F)N1CCN(C(=O)C2CC2)CC1 [Olaparib] (first compound max 1 µM, partner max 10 µM) | 0.354 | 0.248 | 0.354 | 0.511 | 0.525 | 0.449 | 0.213 | 0.745 | 0.96 | 0.303 | 0.731 | 0.369 | 0.819 | 0.914
CCN(CCO)CCCOc1ccc2c(Nc3cc(CC(=O)Nc4cccc(F)c4)[nH]n3)ncnc2c1 [AZD2811] + C=CCn1c(=O)c2cnc(Nc3ccc(N4CCN(C)CC4)cc3)nc2n1-c1cccc(C(C)(C)O)n1 [AZD1775] (first compound max 1 µM, partner max 1 µM) | 0.408 | 0.195 | 0.331 | 0.449 | 0.632 | 0.41 | 0.155 | 0.645 | 0.977 | 0.197 | 0.59 | 0.261 | 0.869 | 0.882
CCN(CCO)CCCOc1ccc2c(Nc3cc(CC(=O)Nc4cccc(F)c4)[nH]n3)ncnc2c1 [AZD2811] + C[C@@H]1COCCN1C2=NC(=NC(=C2)C3(CC3)[S@](=N)(=O)C)C4=C5C=CNC5=NC=C4 [AZD6738] (first compound max 1 µM, 7x7, partner max 10 µM) | 0.534 | 0.236 | 0.336 | 0.447 | 0.733 | 0.276 | 0.18 | 0.675 | 0.924 | 0.575 | 0.473 | 0.326 | 0.79 | 0.87
CCN(CCO)CCCOc1ccc2c(Nc3cc(CC(=O)Nc4cccc(F)c4)[nH]n3)ncnc2c1 [AZD2811] + O=C(c1cc(Cc2n[nH]c(=O)c3ccccc23)ccc1F)N1CCN(C(=O)C2CC2)CC1 [Olaparib] (first compound max 1 µM, 7x7, partner max 10 µM) | 0.206 | 0.242 | 0.215 | 0.244 | 0.294 | 0.215 | 0.185 | 0.112 | 0.617 | 0.179 | 0.264 | 0.147 | 0.653 | 0.289
CN(CCO)CC[C@H](CSc1ccccc1)Nc1ccc(S(=O)(=O)NC(=O)c2ccc(N3CCC([C@@H](O)c4ccccc4-c4ccc(Cl)cc4)CC3)cc2)cc1S(=O)(=O)C(F)(F)F [AZD4320] + C1CN(CCC1(C(=O)N[C@@H](CCO)C2=CC=C(C=C2)Cl)N)C3=NC=NC4=C3C=CN4 [Capivasertib] (first compound max 1 µM, 7x7, partner max 3 µM) | 0.409 | 0.619 | 0.5 | 0.0788 | 0.974 | 0.418 | 0.307 | 0.136 |  | 0.215 | 0.406 | 0.131 | 0.689 | 0.518
CN(CCO)CC[C@H](CSc1ccccc1)Nc1ccc(S(=O)(=O)NC(=O)c2ccc(N3CCC([C@@H](O)c4ccccc4-c4ccc(Cl)cc4)CC3)cc2)cc1S(=O)(=O)C(F)(F)F [AZD4320] + C=CCn1c(=O)c2cnc(Nc3ccc(N4CCN(C)CC4)cc3)nc2n1-c1cccc(C(C)(C)O)n1 [AZD1775] (first compound max 1 µM, partner max 1 µM) | 0.404 | 0.92 | 0.718 | 0.776 | 1 | 0.708 | 0.173 | 0.528 | 0.982 | 0.331 | 0.804 | 0.426 | 0.931 | 0.953
CN(CCO)CC[C@H](CSc1ccccc1)Nc1ccc(S(=O)(=O)NC(=O)c2ccc(N3CCC([C@@H](O)c4ccccc4-c4ccc(Cl)cc4)CC3)cc2)cc1S(=O)(=O)C(F)(F)F [AZD4320] + CCN(CCO)CCCOc1ccc2c(Nc3cc(CC(=O)Nc4cccc(F)c4)[nH]n3)ncnc2c1 [AZD2811] (first compound max 1 µM, 7x7, partner max 1 µM) | 0.125 | 0.775 | 0.594 | 0.236 | 1 | 0.375 | 0.173 | 0.0513 | 0.48 | 0.136 | 0.466 | 0.191 | 0.684 | 0.151
CN(CCO)CC[C@H](CSc1ccccc1)Nc1ccc(S(=O)(=O)NC(=O)c2ccc(N3CCC([C@@H](O)c4ccccc4-c4ccc(Cl)cc4)CC3)cc2)cc1S(=O)(=O)C(F)(F)F [AZD4320] + CN(C)CCCOc1ccc(-c2ccc3ncc4c(c3c2)n(C2CCOCC2)c(=O)n4C)cn1 [AZD0156] (first compound max 1 µM, 7x7, partner max 1 µM) | 0.191 | 0.745 | 0.549 | 0.0513 | 0.974 | 0.193 | 0.169 | 0.108 | 0.158 | 0.152 | 0.515 | 0.109 | 0.173 | 0.126
COc1nnc2ccc(N3CCC(c4ccc(OCCN5CCN(C)C(=O)[C@H]5C)cc4)CC3)nn12 [AZD5153] + CN(CC[C@H](CSC1=CC=CC=C1)NC2=C(C=C(C=C2)S(=O)(=O)NC(=O)C3=CC=C(C=C3)N4CCC(CC4)[C@H](C5=CC=CC=C5C6=CC=C(C=C6)Cl)O)S(=O)(=O)C(F)(F)F)CCO [AZD4320] (first compound max 1 µM, 7x7, partner max 1 µM) | 0.511 | 0.399 | 0.618 |  | 1 | 0.804 |  |  |  | 0.718 |  |  | 0.248 | 
CC(=O)c1c(C)c2cnc(Nc3ccc(N4CCNCC4)cn3)nc2n(C2CCCC2)c1=O [Palbociclib] + CN(CC[C@H](CSC1=CC=CC=C1)NC2=C(C=C(C=C2)S(=O)(=O)NC(=O)C3=CC=C(C=C3)N4CCC(CC4)[C@H](C5=CC=CC=C5C6=CC=C(C=C6)Cl)O)S(=O)(=O)C(F)(F)F)CCO [AZD4320] (first compound max 10 µM, 7x7, partner max 1 µM) | 0.223 | 0.529 | 0.415 |  | 0.992 | 0.485 |  |  |  | 0.229 |  |  | 0.597 | 
CCc1c2c(nc3ccc(O)cc13)-c1cc3c(c(=O)n1C2)COC(=O)[C@]3(O)CC [SN-38] + O=C(c1cc(Cc2n[nH]c(=O)c3ccccc23)ccc1F)N1CCN(C(=O)C2CC2)CC1 [Olaparib] (first compound max 0.3 µM, 7x7, partner max 10 µM) | 0.801 | 0.407 | 0.489 | 0.59 | 0.99 | 0.418 | 0.348 | 0.528 | 0.986 | 0.448 | 0.495 | 0.389 |  | 0.747
C[C@@H](c1ccc2nccn2c1)n1nnc2ncc(-c3cnn(C)c3)nc21 [Savolitinib] + CN(CC[C@H](CSC1=CC=CC=C1)NC2=C(C=C(C=C2)S(=O)(=O)NC(=O)C3=CC=C(C=C3)N4CCC(CC4)[C@H](C5=CC=CC=C5C6=CC=C(C=C6)Cl)O)S(=O)(=O)C(F)(F)F)CCO [AZD4320] (first compound max 1 µM, 7x7, partner max 1 µM) | 0.0896 | 0.439 | 0.566 |  | 1 | 0.189 |  |  |  | 0.251 |  |  | 0.159 | 
